The record followed here is ChEMBL document CHEMBL5291721, “A preclinical secondary pharmacology resource illuminates target-adverse drug reaction associations of marketed drugs” (Nat Commun, 2023).

Test [1] has as its target T1, Type-2 angiotensin II receptor (Homo sapiens, UniProt P50052).
T1 sequence (P50052 whole entry): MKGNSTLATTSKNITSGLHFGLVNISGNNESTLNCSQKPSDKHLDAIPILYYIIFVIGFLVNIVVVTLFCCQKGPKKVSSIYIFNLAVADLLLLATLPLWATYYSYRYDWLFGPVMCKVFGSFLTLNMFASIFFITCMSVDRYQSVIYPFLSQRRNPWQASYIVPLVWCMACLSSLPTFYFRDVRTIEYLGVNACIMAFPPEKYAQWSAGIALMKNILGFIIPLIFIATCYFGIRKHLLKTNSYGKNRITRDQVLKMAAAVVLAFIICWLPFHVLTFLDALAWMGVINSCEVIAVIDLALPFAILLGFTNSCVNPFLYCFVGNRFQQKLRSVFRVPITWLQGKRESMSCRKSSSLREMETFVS
It is filed as functional.

In test [2] the target is T2, Prostaglandin G/H synthase 1 (Rattus norvegicus, UniProt Q63921).
T2 sequence (Q63921 whole entry): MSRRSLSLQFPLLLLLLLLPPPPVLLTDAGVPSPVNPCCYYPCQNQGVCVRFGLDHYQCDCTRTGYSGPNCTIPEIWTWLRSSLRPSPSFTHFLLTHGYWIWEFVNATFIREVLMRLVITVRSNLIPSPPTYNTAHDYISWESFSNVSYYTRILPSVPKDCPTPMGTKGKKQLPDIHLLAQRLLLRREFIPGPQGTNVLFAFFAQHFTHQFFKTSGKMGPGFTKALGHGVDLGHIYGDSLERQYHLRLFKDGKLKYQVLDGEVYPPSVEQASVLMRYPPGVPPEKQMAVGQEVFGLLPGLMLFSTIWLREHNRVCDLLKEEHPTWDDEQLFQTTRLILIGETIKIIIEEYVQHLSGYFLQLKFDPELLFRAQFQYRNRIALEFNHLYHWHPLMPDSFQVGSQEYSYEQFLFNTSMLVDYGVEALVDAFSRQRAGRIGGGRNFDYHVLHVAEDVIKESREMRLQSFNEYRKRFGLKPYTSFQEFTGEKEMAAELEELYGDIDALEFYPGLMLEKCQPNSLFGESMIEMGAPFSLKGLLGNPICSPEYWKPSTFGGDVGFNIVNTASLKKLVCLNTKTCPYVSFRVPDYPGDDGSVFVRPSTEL
The class given is functional.

Test [3] concerns the target Beta-1 adrenergic receptor (Homo sapiens, UniProt P08588). It is filed as functional, cell-based.
In test [4] the target is Oxysterols receptor LXR-alpha (Homo sapiens, UniProt Q13133). The class given is functional.
Oxysterols receptor LXR-alpha, sequence (Q13133 whole entry): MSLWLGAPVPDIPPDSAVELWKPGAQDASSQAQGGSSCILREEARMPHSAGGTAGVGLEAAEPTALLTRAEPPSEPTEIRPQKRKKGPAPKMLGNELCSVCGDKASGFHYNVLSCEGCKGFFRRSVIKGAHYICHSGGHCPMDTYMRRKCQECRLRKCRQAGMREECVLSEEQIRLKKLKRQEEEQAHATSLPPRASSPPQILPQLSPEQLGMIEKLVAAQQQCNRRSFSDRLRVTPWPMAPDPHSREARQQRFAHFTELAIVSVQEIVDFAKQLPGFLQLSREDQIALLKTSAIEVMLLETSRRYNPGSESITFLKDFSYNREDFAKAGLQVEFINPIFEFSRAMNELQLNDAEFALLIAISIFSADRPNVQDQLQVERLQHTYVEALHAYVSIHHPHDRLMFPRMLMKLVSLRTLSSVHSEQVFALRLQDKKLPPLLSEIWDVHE
Test [5] concerns the target Retinoic acid receptor alpha (Homo sapiens, UniProt P10276). It is filed as functional, cell-based.
The target of test [6] is T3, Type-1 angiotensin II receptor (Homo sapiens, UniProt P30556).
T3 sequence (P30556 whole entry): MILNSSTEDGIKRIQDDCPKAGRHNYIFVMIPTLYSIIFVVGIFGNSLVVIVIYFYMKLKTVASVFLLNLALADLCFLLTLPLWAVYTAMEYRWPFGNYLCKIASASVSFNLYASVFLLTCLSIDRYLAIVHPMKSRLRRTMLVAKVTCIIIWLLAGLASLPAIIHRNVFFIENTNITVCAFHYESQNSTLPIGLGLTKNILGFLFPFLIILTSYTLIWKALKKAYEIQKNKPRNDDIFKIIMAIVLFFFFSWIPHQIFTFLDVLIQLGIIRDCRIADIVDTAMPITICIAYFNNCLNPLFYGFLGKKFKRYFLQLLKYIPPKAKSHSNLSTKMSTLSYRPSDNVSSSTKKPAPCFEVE

In test [7] the target is T4, Peroxisome proliferator-activated receptor alpha (Homo sapiens, UniProt Q07869).
T4 sequence (Q07869 whole entry): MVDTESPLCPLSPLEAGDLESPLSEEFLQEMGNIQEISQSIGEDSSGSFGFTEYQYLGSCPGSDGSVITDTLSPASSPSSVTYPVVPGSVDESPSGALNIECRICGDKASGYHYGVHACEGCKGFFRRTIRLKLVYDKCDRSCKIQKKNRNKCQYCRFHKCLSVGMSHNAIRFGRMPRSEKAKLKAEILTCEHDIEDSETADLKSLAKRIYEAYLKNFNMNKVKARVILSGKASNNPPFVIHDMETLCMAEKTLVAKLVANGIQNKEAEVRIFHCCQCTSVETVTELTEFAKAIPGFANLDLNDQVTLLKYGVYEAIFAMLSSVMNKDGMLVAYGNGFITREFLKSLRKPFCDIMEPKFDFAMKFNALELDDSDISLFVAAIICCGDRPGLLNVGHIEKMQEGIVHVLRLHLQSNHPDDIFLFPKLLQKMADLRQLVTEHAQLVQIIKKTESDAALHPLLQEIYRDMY
The class given is functional.

Test [8] has as its target Oxysterols receptor LXR-beta (Homo sapiens, UniProt P55055). The class given is functional.
Test [9] deals with T5, Muscarinic acetylcholine receptor M1 (Homo sapiens, UniProt P11229).
T5 sequence (P11229 whole entry): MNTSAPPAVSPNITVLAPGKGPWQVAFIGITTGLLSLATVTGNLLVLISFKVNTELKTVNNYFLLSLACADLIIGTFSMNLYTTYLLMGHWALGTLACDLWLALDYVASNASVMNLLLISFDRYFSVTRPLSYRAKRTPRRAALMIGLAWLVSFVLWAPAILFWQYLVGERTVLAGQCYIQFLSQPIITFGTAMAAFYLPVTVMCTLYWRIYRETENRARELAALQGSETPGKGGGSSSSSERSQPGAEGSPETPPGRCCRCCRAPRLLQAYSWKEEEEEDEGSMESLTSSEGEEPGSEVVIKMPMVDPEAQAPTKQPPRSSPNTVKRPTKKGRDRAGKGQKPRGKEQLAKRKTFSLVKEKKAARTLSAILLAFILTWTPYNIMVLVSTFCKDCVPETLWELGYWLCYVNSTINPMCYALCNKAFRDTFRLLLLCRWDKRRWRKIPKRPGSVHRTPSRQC
The class given is functional, cell-based.
Note: assay procedure not described here.

Beta-1 adrenergic receptor, sequence (P08588 whole entry): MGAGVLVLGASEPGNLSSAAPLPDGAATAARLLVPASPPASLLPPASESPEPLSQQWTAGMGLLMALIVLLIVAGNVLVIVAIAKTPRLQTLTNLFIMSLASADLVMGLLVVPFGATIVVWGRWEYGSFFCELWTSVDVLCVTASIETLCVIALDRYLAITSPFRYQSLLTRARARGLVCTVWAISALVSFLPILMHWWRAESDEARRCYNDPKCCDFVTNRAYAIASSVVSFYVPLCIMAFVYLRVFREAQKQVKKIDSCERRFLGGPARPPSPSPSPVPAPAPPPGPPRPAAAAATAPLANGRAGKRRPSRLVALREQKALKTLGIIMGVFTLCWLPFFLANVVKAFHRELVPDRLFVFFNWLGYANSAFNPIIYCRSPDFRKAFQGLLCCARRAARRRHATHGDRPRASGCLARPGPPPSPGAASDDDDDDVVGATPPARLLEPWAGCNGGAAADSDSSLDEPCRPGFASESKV
Oxysterols receptor LXR-beta, sequence (P55055 whole entry): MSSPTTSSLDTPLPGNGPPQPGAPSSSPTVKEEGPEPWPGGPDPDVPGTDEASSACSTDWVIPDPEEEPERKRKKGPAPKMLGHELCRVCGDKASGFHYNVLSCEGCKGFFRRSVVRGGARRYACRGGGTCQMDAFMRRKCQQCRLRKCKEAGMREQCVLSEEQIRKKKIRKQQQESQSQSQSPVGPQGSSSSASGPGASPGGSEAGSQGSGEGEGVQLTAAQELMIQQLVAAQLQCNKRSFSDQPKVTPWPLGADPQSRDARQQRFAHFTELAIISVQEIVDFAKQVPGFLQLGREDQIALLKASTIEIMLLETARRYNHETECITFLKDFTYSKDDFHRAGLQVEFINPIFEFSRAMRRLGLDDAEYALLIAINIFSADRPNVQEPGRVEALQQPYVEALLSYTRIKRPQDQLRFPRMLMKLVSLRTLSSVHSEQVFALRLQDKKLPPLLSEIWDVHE
Retinoic acid receptor alpha, sequence (P10276 whole entry): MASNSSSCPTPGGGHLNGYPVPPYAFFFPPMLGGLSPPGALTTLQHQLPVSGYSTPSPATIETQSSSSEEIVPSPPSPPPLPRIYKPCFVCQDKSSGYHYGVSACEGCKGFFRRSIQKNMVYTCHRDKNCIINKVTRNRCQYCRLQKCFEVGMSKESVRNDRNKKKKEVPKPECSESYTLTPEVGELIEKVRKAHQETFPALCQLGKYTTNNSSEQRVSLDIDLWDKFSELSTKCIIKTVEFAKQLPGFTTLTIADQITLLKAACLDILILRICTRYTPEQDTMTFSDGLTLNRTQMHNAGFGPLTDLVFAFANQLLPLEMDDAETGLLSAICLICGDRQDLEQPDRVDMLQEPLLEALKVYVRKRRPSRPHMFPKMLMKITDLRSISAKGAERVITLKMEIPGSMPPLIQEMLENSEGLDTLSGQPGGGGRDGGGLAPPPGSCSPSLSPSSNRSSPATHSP

As to `CCOc1nc2cccc(C(=O)O)c2n1Cc1ccc(-c2ccccc2-c2nnn[nH]2)cc1`, in [1], the AC50 (as a rule, the concentration at which the activity in the assay is half-maximal) was 84.8 µM.

For the molecule `CN(CCOc1ccc(CC2SC(=O)NC2=O)cc1)c1ccccn1` (centres undefined) [ROSIGLITAZONE], in [2], the AC50 is greater than 30 µM. In turn, `CC(C)C[C@H](NC(=O)[C@@H](O)[C@H](N)Cc1ccccc1)C(=O)O` [UBENIMEX] had an AC50 in [3] greater than 30 µM.

On to `COc1cc(C(=O)NS(=O)(=O)c2ccccc2C)ccc1Cc1cn(C)c2ccc(NC(=O)OC3CCCC3)cc12` [ZAFIRLUKAST], for which the AC50 was greater than 30 µM in [4]; greater than 30 µM in test [5]; 50 µM in test [6]; greater than 30 µM in test [7]; greater than 30 µM in test [8].

In [9], `O=C1Cc2cc(CCN3CCN(c4nsc5ccccc45)CC3)c(Cl)cc2N1` [ZIPRASIDONE] displayed an AC50 greater than 30 µM.
